Assays:
Type in all cases: cell-based, Escherichia coli
E. coli ATCC 14235 = experiment: Log kill in aqueous bacterial suspension, plating on TSA; details: lactic acid alone, ca. 75 deg. F.
Method: The tests were performed at ambient temperature (ca. 75 deg. F.). The “reaction” (i.e. interaction of antimicrobial agent and the target organism) was initiated by the addition of bacteria to the antimicrobial solution. The reaction was allowed to proceed for the respective time periods listed in Table I (i.e., at least 15 seconds each) and was terminated at the end of that time by adding quench buffer comprising 3.2 M potassium phosphate buffer, pH 7.2. The sample then was evaluated using serial 10-fold dilutions into sterile phosphate buffer as needed to determine, on Tryptic Soy agar (“TSA”), the titer of surviving bacteria. TSA is a medium that allows the growth of most bacteria.
The reduction in the bacterial count is expressed as the “log kill” which is defined as log10 [initial cfu/ml]−log10 [remaining cfu/ml]; where “cfu” refers to “colony forming unit.” All log kills reported herein are positive “base 10.”). Inasmuch as the standard assay mixture contained only ca. 25×10^6 cfu initially (equivalent to 7.398 log) the theoretical maximum kill that can be measured with this assay system is ca. 7.4 log and the practical measuring limit is ca. 6 log. Therefore, high levels of log reduction were monitored by plating reaction mixtures directly (without dilution) onto agar medium. The results are reported in Table I and illustrated in graph format in FIG. 1. […] The tests were replicated with E. coli ATCC 43888, a pathogenic strain of E. coli O157:H7.

E. coli ATCC 12435 = experiment: Log kill / surviving titer in aqueous bacterial suspension, plating on TSA; details: for Log Kill (TSA): lactic acid alone, plated on TSA; for Log Kill (Lactic Acid + Surfactant): 15 seconds, 74 to 80 degrees F.
Method: The “reaction” (i.e. interaction of antimicrobial agent and the target organism) was initiated by the addition of bacteria to the antimicrobial solution. The reaction was allowed to proceed for the respective time periods listed in Table I (i.e., at least 15 seconds each) and was terminated at the end of that time by adding quench buffer comprising 3.2 M potassium phosphate buffer, pH 7.2. The sample then was evaluated using serial 10-fold dilutions into sterile phosphate buffer as needed to determine, on Tryptic Soy agar (“TSA”), the titer of surviving bacteria. TSA is a medium that allows the growth of most bacteria.
The reduction in the bacterial count is expressed as the “log kill” which is defined as log10 [initial cfu/ml]−log10 [remaining cfu/ml]; where “cfu” refers to “colony forming unit.” All log kills reported herein are positive “base 10.”). Inasmuch as the standard assay mixture contained only ca. 25×10^6 cfu initially (equivalent to 7.398 log) the theoretical maximum kill that can be measured with this assay system is ca. 7.4 log and the practical measuring limit is ca. 6 log. Therefore, high levels of log reduction were monitored by plating reaction mixtures directly (without dilution) onto agar medium. The results are reported in Table I and illustrated in graph format in FIG. 1. […] The tests were replicated with E. coli ATCC 43888, a pathogenic strain of E. coli O157:H7. […]
After incubation for 15 seconds at ambient temperature the reaction was quenched by addition of phosphate buffer and the titer of surviving bacteria was determined by plating on TSA as described in the previous examples. […] The amphoteric and zwitterionic surfactants, which carry a net positive charge under the conditions of the reaction mixture, caused enhancement of the log kill by lactic acid. All anionic surfactants tested caused substantial enhancement of the log kill by lactic acid.

E. coli ATTC 12435 = experiment: Lactic acid treatment followed by contact with surfactant (bile salts) on VRBA; details: quenched, then plated on VRBA (bile salts, neutral pH)
Method: (§1) VRBA was designed for the enumeration of coliform bacteria by selecting against most other common bacteria. The principal difference between TSA and VRBA—besides the presence of indicator dyes in VRBA—is the inclusion of bile salts in the VRBA. Historically, bile salts were added to media used to culture intestinal bacteria in order to mimic the intestinal environment more closely. Bile salts also happen to be anionic surfactants.
(§2) Plating of serial dilutions of E. coli SAC-2 made in dilute phosphate buffer (pH 7.2) on VRBA was completed in less than 15 minutes after termination of individual reaction mixtures by addition of quench buffer (phosphate, pH 7.2). Thus, contact with the surfactant in VRBA was made in less than 15 minutes and more than 8 minutes after reaction termination.
The observations were confirmed with E. coli ATTC 12435 as follows: […]

[1] = system: E. coli ATCC 43888 (O157:H7); experiment: Log kill in aqueous bacterial suspension, plating on TSA; details: for Lactic Acid (Log Kill): 2.5% lactic acid, 73 deg. F.; for Log Kill: lactic acid alone, ca. 75 deg. F., TSA
E. coli ATCC 43888 = experiment: Reaction mixture streak plate, visual observation; details: 2.5 wt. % lactic acid only (Niaproof 08 0), room temperature
Method: The tests were performed at room temperature.

E. coli SAC-2 [2] = experiment: Lactic acid treatment followed by contact with surfactant (bile salts) on VRBA; details: quenched, then plated on VRBA (bile salts, neutral pH)
Method: as §1, §2

E. coli SAC-2 [3] = experiment: Log kill / surviving titer in aqueous bacterial suspension, plating on TSA; details: for Log Kill (TSA): lactic acid alone, plated on TSA; for Log Kill (Lactic Acid + Surfactant): surfactant 0.2% in 2.5% lactic acid
Method: In each instance a target sample was employed using approximately 50 micro liters of an SAC-2 culture. E. coli “SAC-2,” was a Gram-negative strain isolated from municipal sewage. The tests were performed at room temperature, i.e., 75 deg. F. […] The results of each test sample were evaluated using a series of 10-fold dilutions as needed to determine, on a standard plating agar (TSA), the titer of bacteria that survived the antimicrobial treatment.
The same procedure was employed as in Example 2, but the only agent added to the target solution was Niaproof 08. No lactic acid was employed.
The mixture was then diluted and plated as previously described.
Increasing amounts of reagent were added to a series of test tubes. […] The bacterial titer of each mixture was determined by preparation and plating of serial dilutions on TSA.
[…] […] The amphoteric and zwitterionic surfactants, which carry a net positive charge under the conditions of the reaction mixture, caused enhancement of the log kill by lactic acid. All anionic surfactants tested caused substantial enhancement of the log kill by lactic acid.

[4] = 2.5 wt. % lactic acid only (Niaproof 08 0.00)
[5] = 15 seconds, 74 to 80 degrees F.
[6] = surfactant 0.2% in 2.5% lactic acid

Compound: CC(O)C(=O)O (centres unmarked) [Lactic Acid, lactic acid, reference compound]
- Log Kill (E. coli ATCC 14235; 15 secs): 1.431 log
- Log Kill (E. coli ATCC 14235; 30 secs): 2.217 log
- Log Kill (E. coli ATCC 14235; 45 secs): 3.246 log
- Log Kill (E. coli ATCC 14235; 60 secs): 3.722 log
- Log Kill (Lactic Acid) (E. coli ATCC 12435; 2.5% lactic acid only, paired control of Niaproof 08, 15 seconds, 83 degrees F.): 2.28 log
- Enhancement Factor (E. coli ATCC 12435; [4]): 1.0
- Log Kill (E. coli ATCC 12435; [4]): 2.283 log
- Log Kill (TSA) (E. coli ATCC 12435; 15 secs): 1.431 log
- Log Kill (TSA) (E. coli ATCC 12435; 30 secs): 2.217 log
- Log Kill (TSA) (E. coli ATCC 12435; 45 secs): 3.246 log
- Log Kill (TSA) (E. coli ATCC 12435; 60 secs): 3.722 log
- Log Kill (VRBA) (E. coli ATTC 12435; lactic acid 15 secs): 5.328 log
- Log Kill (VRBA) (E. coli ATTC 12435; lactic acid 30 secs): 5.328 log
- Log Kill (VRBA) (E. coli ATTC 12435; lactic acid 45 secs): 5.328 log
- Log Kill (VRBA) (E. coli ATTC 12435; lactic acid 60 secs): 5.328 log
- in 2.5% Lactic Acid (Log Kill) ([1]; 2.5% lactic acid only (sodium lauryl sulfate 0)): 2.2 log
- Lactic Acid (Log Kill) ([1]; pH 2.19, 20 secs.): 2.44 log
- Lactic Acid (Log Kill) ([1]; pH 2.42, 20 secs.): 2.71 log
- Lactic Acid (Log Kill) ([1]; pH 2.59, 20 secs.): 1.81 log
- Lactic Acid (Log Kill) ([1]; pH 2.74, 20 secs.): 1.21 log
- Lactic Acid (Log Kill) ([1]; pH 2.86, 20 secs.): 0.732 log
- Lactic Acid (Log Kill) ([1]; pH 3.24, 20 secs.): 0.117 log
- Lactic Acid (Log Kill) ([1]; pH 3.67, 20 secs.): 0.041 log
- in […] Lactic Acid (Log Kill) ([1]; […] lactic acid only (sodium lauryl sulfate 0), 15 seconds, 75 degrees F.): 0.403 log
- Log Kill ([1]; 15 secs): 1.24 log
- Log Kill ([1]; 30 secs): 1.76 log
- Log Kill ([1]; 45 secs): 1.89 log
- Log Kill ([1]; 60 secs): 2.63 log
- Description/Observation (E. coli ATCC 43888): Extensive bacterial growth.
- Log Kill (VRBA) (E. coli SAC-2 [2]; lactic acid 15 secs): 0.509 log
- Log Kill (VRBA) (E. coli SAC-2 [2]; lactic acid 30 secs): 2.812 log
- Log Kill (VRBA) (E. coli SAC-2 [2]; lactic acid 45 secs): 3.330 log
- Log Kill (Lactic Acid) (E. coli SAC-2 [3]; 2.5% lactic acid only, paired control of the surfactant in that line, 15 seconds, 74 to 80 degrees F.): 0.083 log
- Enhancement Factor (log10 kill with lactic acid and surfactant divided by log10 kill with lactic acid only) (E. coli SAC-2 [3]; [4]): 1.00
- Log Kill (E. coli SAC-2 [3]; 2.5 wt. % lactic acid only (Niaproof 08 0.00), 15 seconds, room temperature): 0.456 log
- Log Kill […] Lactic Acid (E. coli SAC-2 [3]; […] lactic acid only (Niaproof 08 0.00), 15 seconds, 75 degrees F.): 0.336 log
- Log Kill (TSA) (E. coli SAC-2 [3]; 15 secs): 0.188 log
- Log Kill (TSA) (E. coli SAC-2 [3]; 30 secs): 0.439 log
- Log Kill (TSA) (E. coli SAC-2 [3]; 45 secs): 0.801 log

Compound: ethoxylated nonylphenol [T-Det N 9.5]
- Log Kill (Lactic Acid + Surfactant) (E. coli SAC-2 [3]; [5]): 0.18 log

Compound: phosphate ester of polyoxyalkylated fatty alcohol [Klearfac AA270]
- Log Kill (Lactic Acid + Surfactant) (E. coli ATCC 12435; [6]): 6.31 log
- Log Kill (Lactic Acid + Surfactant) (E. coli SAC-2 [3]; [5]): 2.56 log

Compound: Polyoxyethylene (20) sorbitan monooleate [Tween 80]
- Log Kill (Lactic Acid + Surfactant) (E. coli SAC-2 [3]; [5]): 0.18 log

Compound: coconut based imidazoline, dicarboxylate, sodium salt [Amphoterge K2]
- Log Kill (Lactic Acid + Surfactant) (E. coli ATCC 12435; [6]): 2.86 log

Compound: CCCCCCCCS(=O)(=O)[O-].[Na+] [Bioterge PAS-8S, sodium octane sulfonate]
- Log Kill (Lactic Acid + Surfactant) (E. coli ATCC 12435; [6]): 6.31 log

Compound: coco amidoalkyl betaine [Norfox CAPB]
- Log Kill (Lactic Acid + Surfactant) (E. coli ATCC 12435; 0.1% CAPB in 2.5% lactic acid): 6.25 log

Compound: CCCCC(CC)COC(=O)CC(C(=O)OCC(CC)CCCC)S(=O)(=O)[O-].[Na+] (centres unmarked) [Sodium dioctyl sulfosuccinate]
- Log Kill (Lactic Acid + Surfactant) (E. coli ATCC 12435; [6]): 6.67 log
